Entries after “also recorded” stand apart in the source; their conditions may differ.
Columns and labels:
mice [1] = assay: Elevated plus-maze test, YL in combination with antagonists for various receptors; type: in vivo, mouse; details: in words
Description: (§1) The elevated plus-maze (EPM) consisted of two open arms (25×5 cm) and two closed arms (25×5×15 cm), which were joined to a central platform 50 cm high above the floor (see FIG. 1). Because the closed arms were surrounded by fences, a mouse could safely walk in the closed arms irrespective of their elevated position. On the other hand, because the open arms were not surrounded by fences, a mouse walking along the open arms would feel anxious that it might fall down from the elevated position. Therefore, the more time the mouse spent in the open arms, or the greater the number of entries to the open arms, the less anxious the mouse was feeling; thus, the anxiolytic activity was determined based on these indices.
(§2) A mouse was placed on a portion of the central platform facing one of the open arms, and the test was started. During a test time of 5 minutes, the cumulative time spent in the open arms (abbr.: time in open arms), the number of visits to the open arms (abbr.: visit to open arms), and the total number of visits to any of the arms (abbr.: total visits) were recorded. The percentage of the time spent in the open arms and the percentage of the number of visits to the open arms were calculated as indices of anxiety.

mice [2] = assay: Elevated plus-maze test, anxiolytic effects; type: in vivo, mouse; details: for Minimum Effective Dose (mg/kg, i.p.): elevated plus-maze, ( ) = showed tendency, — = no anxiolytic effects
Description: In the present invention, the anxiolytic effects can be evaluated by the elevated plus-maze test, developed and widely used as a method for evaluating anxiety-related behaviors to screen anxiolytic drugs (FIG. 1). Specifically, the test is performed as follows: a candidate substance for an anxiolytic drug is orally or intraperitoneally administered to a mouse; 30 minutes after the administration, the mouse is placed in an elevated plus-maze; and the potency of the anxiolytic effects is evaluated based on the number of entries to the open arms and a change in the times spent on the open arms.
as §1, §2
The data obtained from the elevated plus-maze test were represented as the means±SEM. The data were analyzed by 1-way or 2-way ANOVA, followed by the Fisher test for multiple comparisons.
(§3) Each of YL (Example 1 and Comparative Example 3), FL (Example 2), YI (Example 3), FI (Example 4), LY (Example 5), LF (Example 6), IY (Example 7), IF (Example 8), YLY (Example 9), YLQ (Example 10), LYL (Example 11), YLYEIAR (Example 12), YV (Example 13), WL (Example 14), LW (Example 15), HL (Example 16), Y (Comparative Example 1), and Y, L (Comparative Example 2) dissolved in physiological saline was administered intraperitoneally (i.p.) or orally (p.o.) to mice (n=3 to 14) in the amounts shown in each figure before the mice were placed in the elevated plus-maze. The percentage of the time spent in the open arms, the percentage of the number of visits to the open arms, and the total number of visits to the arms (total visits) were compared among groups administered each peptide or amino acid, and a control group (0 mg/kg). YL was investigated for its anxiolytic effects by the open-field test. The results are shown in FIGS. 2 to 14, FIGS. 22 to 27, and Table 3.

mice [3] = assay: Open-field test; type: in vivo, mouse
Description: The open-field used in this experiment was a cylindrical gray apparatus with a diameter of 60 cm and a height of 50 cm, which is divided into 25 sections with black lines. […] However, once a mouse is administered an anxiolytic drug, the time spent in the circle at the center and the number of entries thereto increase.
as §3

ACE = ACE (Homo sapiens, UniProt P12821); assay: ACE inhibitory effects; type: biochemical; details: comparison of YL with IY
Sequence of ACE (P12821 30-1306, species assumed): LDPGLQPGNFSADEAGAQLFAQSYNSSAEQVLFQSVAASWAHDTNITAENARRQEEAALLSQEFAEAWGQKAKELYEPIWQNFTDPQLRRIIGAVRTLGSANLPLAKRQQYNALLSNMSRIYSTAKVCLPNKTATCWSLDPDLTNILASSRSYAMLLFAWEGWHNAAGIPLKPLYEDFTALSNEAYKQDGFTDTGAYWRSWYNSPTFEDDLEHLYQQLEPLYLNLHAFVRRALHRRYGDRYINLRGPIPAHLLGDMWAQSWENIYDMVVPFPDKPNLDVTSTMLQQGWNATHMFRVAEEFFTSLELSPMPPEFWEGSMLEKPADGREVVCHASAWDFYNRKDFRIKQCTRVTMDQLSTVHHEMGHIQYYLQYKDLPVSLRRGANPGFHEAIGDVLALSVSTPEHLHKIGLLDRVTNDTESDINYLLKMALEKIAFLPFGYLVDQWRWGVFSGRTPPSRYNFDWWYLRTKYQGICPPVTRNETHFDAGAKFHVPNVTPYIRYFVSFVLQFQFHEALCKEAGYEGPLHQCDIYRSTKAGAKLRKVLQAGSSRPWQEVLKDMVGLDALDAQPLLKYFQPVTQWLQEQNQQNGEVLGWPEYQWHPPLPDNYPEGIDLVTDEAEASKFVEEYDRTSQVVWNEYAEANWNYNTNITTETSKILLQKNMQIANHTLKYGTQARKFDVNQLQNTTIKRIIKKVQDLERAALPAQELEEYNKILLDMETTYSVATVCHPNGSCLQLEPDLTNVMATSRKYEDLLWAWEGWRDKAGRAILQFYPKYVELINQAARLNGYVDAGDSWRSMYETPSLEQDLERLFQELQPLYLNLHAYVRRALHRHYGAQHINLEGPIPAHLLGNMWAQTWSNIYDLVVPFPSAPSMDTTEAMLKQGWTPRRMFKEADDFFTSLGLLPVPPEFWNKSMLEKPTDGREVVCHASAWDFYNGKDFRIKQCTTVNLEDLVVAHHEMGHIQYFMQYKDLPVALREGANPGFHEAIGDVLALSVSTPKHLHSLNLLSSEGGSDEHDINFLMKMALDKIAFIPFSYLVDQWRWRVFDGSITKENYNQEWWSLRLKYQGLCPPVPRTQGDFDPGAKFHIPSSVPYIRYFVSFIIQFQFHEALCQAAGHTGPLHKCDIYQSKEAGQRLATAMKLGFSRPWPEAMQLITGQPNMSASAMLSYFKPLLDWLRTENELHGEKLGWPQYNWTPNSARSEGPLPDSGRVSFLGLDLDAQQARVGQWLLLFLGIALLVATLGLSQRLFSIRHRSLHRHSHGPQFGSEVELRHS

[4] = 0.1 mg/kg, i.p., mean ± SEM (n = 6), p < 0.05 vs cont.

| Compound | effect of the antagonist/inhibitor on the anxiolytic effects of the peptides of the invention (mice [1]) | Minimum Effective Dose (mg/kg, i.p.) (mice [2]) [mg/kg] | other results |
| --- | --- | --- | --- |
| OC(CCCN1CCN(c2ncc(F)cn2)CC1)c1ccc(F)cc1 (stereo not shown) [BMY14802] | not blocked | – | – |
| CC(C)C[C@H](N)C(=O)O [L, Leu, reference compound] | – | – | anxiolytic effects in the elevated plus-maze experiment (in words) (mice [2]): no anxiolytic effects |
| COc1ccccc1N1CCN(CC(C(=O)NC(C)(C)C)c2ccccc2)CC1 (stereo not shown) [WAY100135] | blocked | – | – |
| N[C@@H](Cc1ccc(O)cc1)C(=O)O [Y, Tyr, reference compound] | – | – | anxiolytic effects in the elevated plus-maze experiment (in words) (mice [2]): no anxiolytic effects |
| CCOC(=O)c1ncn2c1CN(C)C(=O)c1cc(F)ccc1-2 [flumazenil] | significantly blocked | – | – |
| COc1ccc2c(c1)c(CC(=O)O)c(C)n2C(=O)c1ccc(Cl)cc1 [indomethacin] | not blocked | – | – |
| C=CCN1CC[C@]23c4c5ccc(O)c4O[C@H]2C(=O)CC[C@@]3(O)[C@H]1C5 [naloxone] | not blocked | – | – |
| Oc1ccc2c3c1O[C@H]1c4[nH]c5ccccc5c4C[C@@]4(O)[C@@H](C2)N(CC2CC2)CC[C@]314 [naltrindole] | not blocked | – | – |
| His-Leu [HL] | – | 0.1 | – |
| Ile-Tyr [IY] | – | 10 | – |
| Phe-Leu [FL] | – | 0.1 | – |
| Trp-Leu [WL] | – | 0.1 | – |
| Tyr-Leu [YL] | – | 0.1 | anxiolytic effects in the elevated plus-maze experiment (in words) (mice [2]): stronger anxiolytic effects; also recorded: at least equivalent to those of diazepam; Time in Center Circle (%) (mice [3]; [4]): 2.06 ± 0.234 %; Visits to Center Circle (%) (mice [3]; [4]): 3.02 ± 0.404 %; efficacy in the open-field test (in words) (mice [3]; mice): demonstrated its efficacy; ACE inhibitory effects (ACE): weaker than those of IY |
| YLYEIAR [peptide; Y Tyr, L Leu, E Glu, I Ile, A Ala, R Arg] | – | 0.3 | – |
